Test system: swine growth hormone secretagogue receptor (GHSR) Type I, clone 7-3, expressed transiently in COS-7 cells
Test: 35S-labeled Compound A binding assay on crude membranes of transfected COS-7 cells

Row | Structure (SMILES) | specific binding displaced (displacement of ^35S-Compound A binding by 50 nM unlabeled Compound A, 60 min) | Kd (saturation binding of ^35S-Compound A, clone 7-3 expressed transiently in COS-7 cells, 20°C, 1 hr)
1 | CC(C)(N)C(=O)N[C@H](COCc1ccccc1)C(=O)N1CCC2(CC1)CN(S(C)(=O)=O)c1ccccc12 [Compound A] | > 90% | –
2 | CC(C)(N)C(=O)N[C@H](COCc1ccccc1)C(=O)N1CCC2(CC1)CN(S(C)(=O)=O)c1ccccc12 [^35S-Compound A] | – | ~0.2 nM

From EP0876402B1, “GROWTH HORMONE SECRETAGOGUE RECEPTOR FAMILY” (MERCK & CO., INC., priority 1995, dated 1997)
